The structures appear in SMILES notation. Bounds are passed on as bounds.

This test addresses T1, Acetylcholinesterase (Rattus norvegicus, UniProt P37136).
T1 sequence (P37136 whole entry): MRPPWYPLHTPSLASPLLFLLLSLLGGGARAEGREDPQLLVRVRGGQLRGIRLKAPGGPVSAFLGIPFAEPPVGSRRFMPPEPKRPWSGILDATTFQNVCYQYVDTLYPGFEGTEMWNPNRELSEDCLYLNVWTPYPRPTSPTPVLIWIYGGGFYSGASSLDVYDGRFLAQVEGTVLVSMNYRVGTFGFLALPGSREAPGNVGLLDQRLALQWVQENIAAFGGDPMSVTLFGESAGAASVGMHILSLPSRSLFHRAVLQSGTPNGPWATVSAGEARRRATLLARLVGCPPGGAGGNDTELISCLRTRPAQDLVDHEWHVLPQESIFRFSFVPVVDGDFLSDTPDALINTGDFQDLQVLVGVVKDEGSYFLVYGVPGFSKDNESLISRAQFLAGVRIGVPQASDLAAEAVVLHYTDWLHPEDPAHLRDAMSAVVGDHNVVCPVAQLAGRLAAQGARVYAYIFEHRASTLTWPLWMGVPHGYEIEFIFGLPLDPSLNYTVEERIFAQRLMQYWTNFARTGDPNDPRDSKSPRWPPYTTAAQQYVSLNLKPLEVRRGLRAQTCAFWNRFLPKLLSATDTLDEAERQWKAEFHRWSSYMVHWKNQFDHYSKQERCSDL
The test is described as follows: Inhibition of acetylcholinesterase from rat striatal tissue. The class given is tissue-based, Striatum.
`Nc1c2c(nc3ccccc13)CCCC2Nn1cccc1` (stereo unspecified) gave an IC50 of 8.16 µM.
On to `Nc1c2c(nc3ccccc13)CCCC2c1cccs1` (stereo unspecified), for which the IC50 amounted to 0.49 µM.
The figure for `[N-]=[N+]=NC1CCCc2nc3ccccc3c(N)c21` (stereo unspecified) is 11.8 µM; for `CCNC1CCCc2nc3ccccc3c(N)c21` (stereo unspecified) it is 4.79 µM.
The compound `CCOC1CCCc2nc3ccccc3c(N)c21` (stereo unspecified) came in with an IC50 of 0.298 µM.
The figure for `Nc1c2c(nc3ccccc13)CCCC2N1CCN(c2ccccc2)CC1` (stereo unspecified) is more than 100 µM; for `Nc1c2c(nc3ccccc13)CCCC2N` (stereo unspecified) it is 8.59 µM; for `CCCCOC1CCCc2nc3ccccc3c(N)c21` (stereo unspecified) it is 1.9 µM.
Then `Nc1c2c(nc3ccccc13)CCCC2N1CCOCC1` (stereo unspecified), with more than 100 µM; and `COc1ccc(CNC2CCCc3nc4ccccc4c(N)c32)cc1OC` (stereo unspecified), with 38.4 µM; and `Nc1c2c(nc3ccccc13)CCCC2N1CCC(c2ccccc2)CC1` (stereo unspecified), with more than 100 µM.
Compound `CCCNC1CCCc2nc3ccccc3c(N)c21` (stereo unspecified) displayed a 50% inhibitory concentration (IC50) of 12.5 µM.
`Nc1c2c(nc3ccccc13)CCCC2NCCc1ccccc1` (stereo unspecified) registered an IC50 of 18.6 µM.
In turn, `CC(=O)NC1CCCc2nc3ccccc3c(N)c21` (stereo unspecified) yielded an IC50 of 64.9 µM.
Then `CCCCNC1CCCc2nc3ccccc3c(N)c21` (stereo unspecified), with 48.8 µM; and `Nc1c2c(nc3ccccc13)CCCC2N1CCCC1` (stereo unspecified), with 18 µM.
The figure for `c1ccc(C2=NC3CCCc4nc5ccccc5c(c43)N2)cc1` (stereo unspecified) is more than 100 µM; for `COc1ccc(C2CCCc3nc4ccccc4c(N)c32)c(OC)c1` (stereo unspecified) it is 4.82 µM.
Consider `CC1=NC2CCCc3nc4ccccc4c(c32)N1` (stereo unspecified), for which the IC50 is more than 100 µM.
As for `CN1CCN(C2CCCc3nc4ccccc4c(N)c32)CC1` (stereo unspecified), the IC50 was more than 100 µM.
The figure for `Nc1c2c(nc3ccccc13)CCCC2NCc1ccccc1` (stereo unspecified) is 20.1 µM; for `CCCOC1CCCc2nc3ccccc3c(N)c21` (stereo unspecified) it is 0.193 µM; for `Nc1c2c(nc3ccccc13)CCCC2N1CCCCC1` (stereo unspecified) it is 8.4 µM.
Compound `CCCCCC(=O)NC1CCCc2nc3ccccc3c(N)c21` (stereo unspecified) registered an IC50 of 51.8 µM.
The figure for `COC1CCCc2nc3ccccc3c(N)c21` (stereo unspecified) is 4.74 µM; for `Nc1c2c(nc3ccccc13)CCCC2O` (stereo unspecified) [VELNACRINE] it is 3.64 µM.

As usually defined, the IC50 is the concentration that gives 50% inhibition. High values mean weaker potency, low ones greater potency.

(Values after ChEMBL document CHEMBL1127167, “Synthesis and in vitro acetylcholinesterase inhibitory activity of some 1-substituted analogues of velnacrine” (Bioorg Med Chem Lett, 1993).)
